Results reported in EPA's CvTdb concentration-time database.

Legend:
Rat [1] = experiment: concentration in brain after dosing; conditions: 0.2 h; dosed: 2-Methyltetrahydrofuran; 40 mg/kg; iv; Male; Harlan Sprague Dawley
Rat [2] = experiment: concentration in brain after dosing; conditions: 2 min; dosed: 2-Methyltetrahydrofuran; 40 mg/kg; iv; Female; Harlan Sprague Dawley
Rat [3] = experiment: concentration in plasma after dosing; conditions: 6 h; dosed: 2-Methyltetrahydrofuran; 40 mg/kg; iv; Male; Harlan Sprague Dawley
Rat [4] = experiment: concentration in plasma after dosing; conditions: 6 h; dosed: 2-Methyltetrahydrofuran; 40 mg/kg; iv; Male; Harlan Sprague Dawley; remark: listed apart in the source
Rat [5] = experiment: concentration in brain after dosing; conditions: 7 min; dosed: 2-Methyltetrahydrofuran; 40 mg/kg; iv; Male; Harlan Sprague Dawley
Rat [6] = experiment: concentration in plasma after dosing; conditions: dosed: Perfluorohexanoic Acid, 40 mg/kg, oral, Male, Harlan Sprague Dawley
Rat [7] = experiment: concentration in plasma after dosing; conditions: dosed: Perfluorohexanoic Acid, 40 mg/kg, oral, Male, Harlan Sprague Dawley; remark: listed apart in the source
Rat [8] = experiment: concentration in liver after dosing; conditions: 0.5 h; dosed: Perfluorohexanoic Acid; 80 mg/kg; oral; Female; Harlan Sprague Dawley
Rat [9] = experiment: concentration in liver after dosing; conditions: 1 h; dosed: Perfluorohexanoic Acid; 80 mg/kg; oral; Male; Harlan Sprague Dawley
Rat [10] = experiment: concentration in plasma after dosing; conditions: 5 min; dosed: Perfluorohexanoic Acid; 40 mg/kg; iv; Male; F344
Rat [11] = experiment: concentration in plasma after dosing; conditions: dosed: Perfluorohexanoic Acid, 40 mg/kg, oral, Male, Harlan Sprague Dawley; remark: listed apart in the source
Rat [12] = experiment: concentration in kidney after dosing; conditions: 0.5 h; dosed: Perfluorohexanoic Acid; 80 mg/kg; oral; Female; Harlan Sprague Dawley
Rat [13] = experiment: concentration in plasma after dosing; conditions: 0.75 h; dosed: Perfluorohexanoic Acid; 80 mg/kg; oral; Male; Harlan Sprague Dawley
Rat [14] = experiment: concentration in plasma after dosing; conditions: 4 h; dosed: Gemfibrozil; 4.29 mg/kg; oral; Male; Sprague-Dawley
Rat [15] = experiment: concentration in plasma after dosing; conditions: 18 h; dosed: Gemfibrozil; 100 mg/kg; oral; Male; Sprague-Dawley
Rat [16] = experiment: concentration in plasma after dosing; conditions: 6 h; dosed: Gemfibrozil; 50 mg/kg; oral; Male; Sprague-Dawley
Rat [17] = experiment: concentration in plasma after dosing; conditions: 24 h; dosed: Gemfibrozil; 100 mg/kg; oral; Male; Sprague-Dawley
Rat [18] = experiment: concentration in plasma after dosing; conditions: 10 h; dosed: Gemfibrozil; 50 mg/kg; oral; Male; Sprague-Dawley
Rat [19] = experiment: concentration in brain after dosing; conditions: 6 h; dosed: Perfluorooctane Sulfonate; 20 mg/kg; oral; Male; Harlan Sprague Dawley
Rat [20] = experiment: concentration in liver after dosing; conditions: 864 h; dosed: Perfluorooctane Sulfonate; 20 mg/kg; oral; Female; F344
Rat [21] = experiment: concentration in kidney after dosing; conditions: 1848 h; dosed: Perfluorooctane Sulfonate; 20 mg/kg; oral; Male; Harlan Sprague Dawley
Rat [22] = experiment: concentration in plasma after dosing; conditions: dosed: Perfluorooctane Sulfonate, 2 mg/kg, iv, Male, F344
Rat [23] = experiment: concentration in liver after dosing; conditions: 1848 h; dosed: Perfluorooctane Sulfonate; 2 mg/kg; oral; Female; Harlan Sprague Dawley
Rat [24] = experiment: concentration in brain after dosing; conditions: 6 h; dosed: Perfluorooctane Sulfonate; 20 mg/kg; oral; Female; F344
Rat [25] = experiment: concentration in liver after dosing; conditions: 24 h; dosed: Perfluorooctane Sulfonate; 20 mg/kg; oral; Male; Harlan Sprague Dawley
Rat [26] = experiment: concentration in plasma after dosing; conditions: 1848 h; dosed: Perfluorooctane Sulfonate; 2 mg/kg; oral; Female; Harlan Sprague Dawley
Rat [27] = experiment: concentration in kidney after dosing; conditions: 1848 h; dosed: Perfluorooctane Sulfonate; 2 mg/kg; oral; Female; Harlan Sprague Dawley
Rat [28] = experiment: concentration in kidney after dosing; conditions: 6 h; dosed: Perfluorooctane Sulfonate; 20 mg/kg; oral; Male; Harlan Sprague Dawley
Rat [29] = experiment: concentration in liver after dosing; conditions: 3360 h; dosed: Perfluorooctane Sulfonate; 20 mg/kg; oral; Male; Harlan Sprague Dawley
Rat [30] = experiment: concentration in plasma after dosing; conditions: dosed: Perfluorooctane Sulfonate, 2 mg/kg, iv, Female, Harlan Sprague-Dawley
Rat [31] = experiment: concentration in plasma after dosing; conditions: dosed: 678-39-7, 40 mg/kg, iv, Male, F344
Rat [32] = experiment: concentration in kidney after dosing; conditions: 12 h; dosed: Fluorotelomer alcohol 8+2; 80 mg/kg; oral; Female; Harlan Sprague Dawley
Rat [33] = experiment: concentration in kidney after dosing; conditions: 6 h; dosed: Fluorotelomer alcohol 8+2; 24 mg/kg; oral; Male; Harlan Sprague Dawley
Rat [34] = experiment: concentration in plasma after dosing; conditions: dosed: Fluorotelomer alcohol 8+2, 12 mg/kg, oral, Male, Harlan Sprague Dawley
Rat [35] = experiment: concentration in kidney after dosing; conditions: 1 h; dosed: Fluorotelomer alcohol 8+2; 24 mg/kg; oral; Male; Harlan Sprague Dawley
Rat [36] = experiment: concentration in plasma after dosing; conditions: dosed: Fluorotelomer alcohol 8+2, 12 mg/kg, oral, Male, Harlan Sprague Dawley; remark: listed apart in the source
Rat [37] = experiment: concentration in brain after dosing; conditions: 12 h; dosed: Fluorotelomer alcohol 8+2; 24 mg/kg; oral; Male; Harlan Sprague Dawley
Rat [38] = experiment: concentration in brain after dosing; conditions: 1 h; dosed: Fluorotelomer alcohol 8+2; 80 mg/kg; oral; Female; Harlan Sprague Dawley
Rat [39] = experiment: concentration in kidney after dosing; conditions: 3 h; dosed: Fluorotelomer alcohol 8+2; 24 mg/kg; oral; Male; Harlan Sprague Dawley

CC1CCCO1 (centres undefined) [2-Methyltetrahydrofuran]
Conditions	concentration in brain [ng/mL]	concentration in plasma [ng/mL]
Rat [1]	30800	–
Rat [2]	38000	–
Rat [3]	–	10.8
Rat [4]	–	16.9
Rat [5]	34000	–

O=C(O)C(F)(F)C(F)(F)C(F)(F)C(F)(F)C(F)(F)F [Perfluorohexanoic Acid]
concentration in plasma [ng/mL]
Conditions	0.25 h	1 h	6 h	24 h
Rat [6]	–	51400	–	2400
Rat [7]	54000	–	31300	–
Rat [11]	44500	–	26700	–

Conditions	concentration in kidney [ng/g]	concentration in liver [ng/g]	concentration in plasma [ng/mL]
Rat [8]	–	23800	–
Rat [9]	–	88800	–
Rat [10]	–	–	18600
Rat [12]	46000	–	–
Rat [13]	–	–	134000

Cc1ccc(C)c(OCCCC(C)(C)C(=O)O)c1 [Gemfibrozil]
Conditions	concentration in plasma [ng/mL]
Rat [14]	238
Rat [15]	3300
Rat [16]	7260
Rat [17]	1050
Rat [18]	1930

O=S(=O)([O-])C(F)(F)C(F)(F)C(F)(F)C(F)(F)C(F)(F)C(F)(F)C(F)(F)C(F)(F)F [Perfluorooctane Sulfonate]
Conditions	concentration in brain [ng/g]	concentration in kidney [ng/g]	concentration in liver [ng/g]	concentration in plasma [ng/mL]
Rat [19]	4810	–	–	–
Rat [20]	–	–	77100	–
Rat [21]	–	25300	–	–
Rat [23]	–	–	9070	–
Rat [24]	3990	–	–	–
Rat [25]	–	–	157000	–
Rat [26]	–	–	–	987
Rat [27]	–	860	–	–
Rat [28]	–	72300	–	–
Rat [29]	–	–	15700	–

concentration in plasma [ng/mL]
Conditions	1 h	6 h	192 h	864 h	1704 h	3216 h
Rat [22]	–	4220	–	1290	–	359
Rat [30]	4460	–	2800	–	848	–

O=C(O)CCC(F)(F)C(F)(F)C(F)(F)C(F)(F)C(F)(F)C(F)(F)C(F)(F)F [Fluorotelomer acid 7+3]
Conditions	concentration in plasma [ng/mL]
Rat [31], 0.25 h	115
Rat [31], 6 h	2200
Rat [34], 1 h	334
Rat [34], 24 h	377
Rat [36], 0.5 h	116
Rat [36], 9 h	264

Conditions	concentration in brain [ng/g]	concentration in kidney [ng/g]
Rat [32]	–	2750
Rat [33]	–	822
Rat [35]	–	310
Rat [37]	98.2	–
Rat [38]	277	–
Rat [39]	–	1450
